# Experimental data from ChEMBL document CHEMBL1201862, “PubChem BioAssay data set” (2004).
# The source made the active and inactive calls. For most assays here, no stated cut-off is given here; in the data, actives have a measured IC50 and inactives only a lower limit.
# Experiments:
# Type in all cases: functional
# [1] = molecular target: T1, Protein RecA (Mycobacterium tuberculosis, UniProt P9WHJ3); assay: Fluorescence Cell-Free Homogeneous Dose Retest to Identify Inhibitors of RecA-Intein Splicing Activity. [Related pubchem assays (depositor defined):AID2097, AID2223, AID489010, AID492950]
# T1 sequence (P9WHJ3 whole entry): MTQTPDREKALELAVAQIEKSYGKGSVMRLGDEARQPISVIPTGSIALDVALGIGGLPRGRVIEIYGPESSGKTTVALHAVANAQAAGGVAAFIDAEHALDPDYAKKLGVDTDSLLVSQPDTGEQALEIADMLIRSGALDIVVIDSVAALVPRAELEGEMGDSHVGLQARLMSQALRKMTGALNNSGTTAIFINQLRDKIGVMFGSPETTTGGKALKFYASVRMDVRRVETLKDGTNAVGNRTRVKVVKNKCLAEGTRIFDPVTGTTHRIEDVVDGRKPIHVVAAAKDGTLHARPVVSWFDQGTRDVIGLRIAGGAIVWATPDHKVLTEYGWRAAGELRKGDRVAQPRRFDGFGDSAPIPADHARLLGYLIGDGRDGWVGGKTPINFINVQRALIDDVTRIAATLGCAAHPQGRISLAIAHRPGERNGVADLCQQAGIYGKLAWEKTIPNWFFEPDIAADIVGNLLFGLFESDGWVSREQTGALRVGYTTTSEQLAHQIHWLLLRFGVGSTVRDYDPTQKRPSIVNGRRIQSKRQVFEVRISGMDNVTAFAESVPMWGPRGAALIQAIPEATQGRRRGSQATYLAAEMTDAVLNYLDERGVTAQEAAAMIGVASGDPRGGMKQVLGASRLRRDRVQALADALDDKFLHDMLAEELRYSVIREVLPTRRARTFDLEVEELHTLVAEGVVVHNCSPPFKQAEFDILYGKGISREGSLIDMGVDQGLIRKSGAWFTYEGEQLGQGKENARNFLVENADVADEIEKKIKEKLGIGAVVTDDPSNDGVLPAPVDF
# [2] = molecular target: T2, Sentrin-specific protease 6 (Homo sapiens, UniProt Q9GZR1);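 further: Luminescence-based dose-response confirmatory assay of SENP6 inhibition, following up an ultra-high-throughput screen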
# T2 sequence (Q9GZR1 whole entry): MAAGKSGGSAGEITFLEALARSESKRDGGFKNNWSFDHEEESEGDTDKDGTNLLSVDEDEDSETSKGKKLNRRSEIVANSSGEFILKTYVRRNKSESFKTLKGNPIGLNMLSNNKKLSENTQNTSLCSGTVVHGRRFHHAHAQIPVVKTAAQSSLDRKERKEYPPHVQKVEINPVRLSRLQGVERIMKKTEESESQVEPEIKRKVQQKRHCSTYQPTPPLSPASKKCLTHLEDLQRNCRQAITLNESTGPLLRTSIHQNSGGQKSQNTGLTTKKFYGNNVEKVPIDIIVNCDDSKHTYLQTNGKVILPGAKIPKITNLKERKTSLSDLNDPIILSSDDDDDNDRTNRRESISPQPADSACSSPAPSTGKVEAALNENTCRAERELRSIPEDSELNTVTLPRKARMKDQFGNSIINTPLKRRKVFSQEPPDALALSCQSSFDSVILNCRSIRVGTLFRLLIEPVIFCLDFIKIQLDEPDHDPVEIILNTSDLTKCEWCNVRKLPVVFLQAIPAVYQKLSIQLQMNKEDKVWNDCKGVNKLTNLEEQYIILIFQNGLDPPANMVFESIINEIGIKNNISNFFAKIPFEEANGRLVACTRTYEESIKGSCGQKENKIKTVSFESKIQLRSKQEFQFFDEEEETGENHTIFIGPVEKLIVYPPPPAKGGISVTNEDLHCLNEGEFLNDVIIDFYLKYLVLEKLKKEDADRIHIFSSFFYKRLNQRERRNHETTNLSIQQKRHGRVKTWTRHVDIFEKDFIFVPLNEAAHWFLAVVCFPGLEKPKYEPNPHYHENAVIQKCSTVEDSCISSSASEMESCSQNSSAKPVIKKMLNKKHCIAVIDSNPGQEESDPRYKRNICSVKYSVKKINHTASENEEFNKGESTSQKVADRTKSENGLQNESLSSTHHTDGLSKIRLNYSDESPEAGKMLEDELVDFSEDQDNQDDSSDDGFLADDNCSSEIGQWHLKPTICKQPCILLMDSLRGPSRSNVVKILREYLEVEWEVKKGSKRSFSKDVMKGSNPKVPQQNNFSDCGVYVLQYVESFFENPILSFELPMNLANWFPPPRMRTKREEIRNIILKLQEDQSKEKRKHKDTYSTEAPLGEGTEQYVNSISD
# [3] = molecular target: T3, Sentrin-specific protease 7 (Homo sapiens, UniProt Q9BQF6);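 further: Luminescence-based dose-response confirmation of ultra-high-throughput screening hits, measuring inhibition of SENP7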
# T3 sequence (Q9BQF6 whole entry): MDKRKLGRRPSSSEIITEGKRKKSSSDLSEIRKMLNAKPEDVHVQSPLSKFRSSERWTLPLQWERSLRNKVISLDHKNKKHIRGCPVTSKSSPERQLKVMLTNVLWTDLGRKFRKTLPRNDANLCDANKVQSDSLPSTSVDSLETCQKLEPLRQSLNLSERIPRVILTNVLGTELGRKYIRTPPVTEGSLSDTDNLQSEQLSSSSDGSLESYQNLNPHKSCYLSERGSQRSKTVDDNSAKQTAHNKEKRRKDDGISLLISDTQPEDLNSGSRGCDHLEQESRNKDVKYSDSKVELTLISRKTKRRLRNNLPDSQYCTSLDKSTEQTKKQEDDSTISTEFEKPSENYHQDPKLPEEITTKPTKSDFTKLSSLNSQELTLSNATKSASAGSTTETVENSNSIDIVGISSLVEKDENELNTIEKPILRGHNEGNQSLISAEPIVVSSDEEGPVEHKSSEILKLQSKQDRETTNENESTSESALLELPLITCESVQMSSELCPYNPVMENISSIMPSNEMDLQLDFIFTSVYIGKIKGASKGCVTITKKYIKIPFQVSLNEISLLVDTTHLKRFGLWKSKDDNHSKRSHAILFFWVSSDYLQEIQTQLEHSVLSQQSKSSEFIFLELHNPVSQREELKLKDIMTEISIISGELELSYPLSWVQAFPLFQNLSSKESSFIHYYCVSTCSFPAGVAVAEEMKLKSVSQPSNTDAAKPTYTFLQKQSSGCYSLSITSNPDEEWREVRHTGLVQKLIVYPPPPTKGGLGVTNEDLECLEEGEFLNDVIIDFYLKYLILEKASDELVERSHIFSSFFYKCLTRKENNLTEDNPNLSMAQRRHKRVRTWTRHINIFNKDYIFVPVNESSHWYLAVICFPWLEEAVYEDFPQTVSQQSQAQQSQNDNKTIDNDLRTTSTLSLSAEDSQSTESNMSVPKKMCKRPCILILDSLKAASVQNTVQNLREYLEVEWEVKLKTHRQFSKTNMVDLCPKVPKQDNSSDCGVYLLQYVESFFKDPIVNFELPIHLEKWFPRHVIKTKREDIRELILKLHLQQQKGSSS
Structure (SMILES),EC50 [1],IC50 [2],IC50 [3]
CC(=O)NC1C(=O)N(CCN2CCOCC2)c2ccc(F)cc21 (centres undefined),12.1 µM (active),,
O=C1N=C(NS(=O)(=O)Cc2ccccc2)S/C1=C1\C(=O)Nc2ccccc21,,15.7 µM (active),3.76 µM (active)
O=C1C=C(N2CCCCC2)c2ccccc2C1=O,1.25 µM (active),,
O=C(O)C1Nc2c(O)cc(Cl)c([N+](=O)[O-])c2C2C=CCC12 (centres undefined),11.5 µM (active),,
Clc1ccc2nc(-c3ccc(Br)s3)cn2c1,,12.3 µM (active),7.91 µM (active)
Oc1ccc(N=Nc2c(O)ccc3ccccc23)cc1,,13 µM (active),8.49 µM (active)
